Assay [1] has as its system adenosine uptake into HeLa cells. Description: [3H]Adenosine uptake assay. It is filed as cell-based. The conditions noted are these: Homo sapiens; accumulation of [3H]adenosine into HeLa cells; concentration range 10 μM to 0.032 nM; read-out: ADU inhibition IC50. The essentials:
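HeLa cells (25 000/well), plated overnight, were preincubated 30 minutes at ambient temperature with compound in HBSS + 5% FBS. Ten-point titrations ran from 10 μM to 0.032 nM final. [3H]adenosine was added from a 500 nM solution for 60 minutes, and uptake was measured by scintillation proximity counting; IC50 came from a 4-parameter fit.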

The target in assay [2] is T1, BTK enzyme (recombinant full-length BTK, hBTK) (Homo sapiens, UniProt Q06187).
T1 construct: recombinant protein from baculovirus-transfected S 19 cells: full-length BTK, 6 HIS-tag cleaved; 6 HIS-tag (cleaved yes); made in house
T1 sequence (Q06187 whole entry): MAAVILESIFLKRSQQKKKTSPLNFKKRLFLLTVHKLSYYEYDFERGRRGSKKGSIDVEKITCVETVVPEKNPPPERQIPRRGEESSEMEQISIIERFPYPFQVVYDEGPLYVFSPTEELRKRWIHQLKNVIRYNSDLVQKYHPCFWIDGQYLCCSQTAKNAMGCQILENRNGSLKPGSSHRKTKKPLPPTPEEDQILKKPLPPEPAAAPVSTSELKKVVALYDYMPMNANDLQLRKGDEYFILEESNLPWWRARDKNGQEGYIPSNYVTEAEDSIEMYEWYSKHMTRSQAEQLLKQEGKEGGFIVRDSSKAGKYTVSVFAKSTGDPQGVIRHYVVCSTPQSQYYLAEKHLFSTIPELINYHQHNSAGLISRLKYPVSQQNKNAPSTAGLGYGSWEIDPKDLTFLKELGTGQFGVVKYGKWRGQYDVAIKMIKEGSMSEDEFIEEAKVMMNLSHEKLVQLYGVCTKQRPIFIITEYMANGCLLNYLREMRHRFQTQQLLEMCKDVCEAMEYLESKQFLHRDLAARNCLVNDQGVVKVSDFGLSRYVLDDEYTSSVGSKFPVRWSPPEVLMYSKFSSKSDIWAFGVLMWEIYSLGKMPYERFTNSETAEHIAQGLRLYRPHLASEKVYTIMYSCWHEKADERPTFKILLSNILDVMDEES
As to the kind of experiment: Btk enzyme activity assay (LANCE TR-FRET). It is filed as biochemical. The conditions noted are these: 50 pM hBTK, 25 μM ATP, 60 minute compound and enzyme incubation, concentration range 1 μM to 0.017 nM, read-out: BTK binding IC50.

One may read the IC50 as the concentration at which inhibition is half-maximal.

On to `COc1cc(C(=O)Nc2cc(C(F)(F)F)ccn2)ccc1-c1nc([C@H]2CN(Cc3[nH]cnc3C)[C@@H](C)CO2)n2ccnc(N)c12` [Example 53, 4-(8-amino-3-{(2R,5S)-5-methyl-4-[(4-methyl-1H-imidazol-5-yl)methyl]morpholin-2-yl}imidazo[1,5-a]pyrazin-1-yl)-3-methoxy-N-[4-(trifluoromethyl)pyridin-2-yl]benzamide], for which the half-maximal inhibitory concentration (IC50) in assay [1] came to 1030 nM; in assay [2], 5.8 nM.
Taken in the same sequence, the figures for `CC(=O)N1C[C@H](c2nc(-c3ccc(C(=O)Nc4cc(C(F)(F)F)ccn4)cc3F)c3c(N)nccn23)OC[C@@H]1C` [Example 88, 4-{3-[(2R,5S)-4-acetyl-5-methylmorpholin-2-yl]-8-aminoimidazo[1,5-a]pyrazin-1-yl}-3-fluoro-N-[4-(trifluoromethyl)pyridin-2-yl]benzamide] were 215 nM and 0.343 nM.
On to `C[C@@H]1CO[C@@H](c2nc(-c3ccc(C(=O)Nc4cc(C(F)(F)F)ccn4)cc3F)c3c(N)nccn23)CN1C1CCOCC1` [Example 73, 4-{8-amino-3-[(2R,5R)-5-methyl-4-(tetrahydro-2H-pyran-4-yl)morpholin-2-yl]imidazo[1,5-a]pyrazin-1-yl}-3-fluoro-N-[4-(trifluoromethyl)pyridin-2-yl]benzamide], for which the half-inhibitory concentration (IC50) in assay [1] was 122 nM; in assay [2], 2.67 nM.
On to `CCC(=O)N1C[C@H](c2nc(-c3ccc(C(=O)Nc4cc(C(F)(F)F)ccn4)cc3OC)c3c(N)ncc(Cl)n23)OC[C@@H]1C` [Example 16, 4-{8-amino-5-chloro-3-[(2R,5S)-5-methyl-4-propanoylmorpholin-2-yl]imidazo[1,5-a]pyrazin-1-yl}-3-methoxy-N-[4-(trifluoromethyl)pyridin-2-yl]benzamide], for which the values for the concentration for half-maximal inhibition (IC50) in assay [1] and in assay [2] were 2790 nM and 1.25 nM, respectively.
Taken in the same sequence, the figures for `CCOc1cc(C(=O)Nc2cc(C(F)(F)F)n(C)n2)ccc1-c1nc([C@H]2CN(C3CCOCC3)[C@@H](C)CO2)n2c(Cl)cnc(N)c12` [Example 40, 4-{8-amino-5-chloro-3-[(2R,5S)-5-methyl-4-(tetrahydro-2H-pyran-4-yl)morpholin-2-yl]imidazo[1,5-a]pyrazin-1-yl}-3-ethoxy-N-[1-methyl-5-(trifluoromethyl)-1H-pyrazol-3-yl]benzamide] were 4620 nM and 5.87 nM.
With `CCOc1cc(C(=O)Nc2cc(C(F)(F)F)ccn2)ccc1-c1nc([C@H]2CN(C3CCS(=O)(=O)CC3)[C@@H](C)CO2)n2c(Cl)cnc(N)c12` [Example 108, 4-{8-amino-5-chloro-3-[(2R,5S)-4-(1,1-dioxidotetrahydro-2H-thiopyran-4-yl)-5-methylmorpholin-2-yl]imidazo[1,5-a]pyrazin-1-yl}-3-ethoxy-N-[4-(trifluoromethyl)pyridin-2-yl]benzamide], the IC50 in assay [1] came to 1320 nM; in assay [2] it was 1.8 nM.
As for `COCCC(=O)N1CC(N2C[C@H](c3nc(-c4ccc(C(=O)Nc5cc(C(F)(F)F)ccn5)cc4OC)c4c(N)nccn34)OC[C@@H]2C)C1` [Example 28, 4-(8-amino-3-{(2R,5S)-4-[1-(3-methoxypropanoyl)azetidin-3-yl]-5-methylmorpholin-2-yl}imidazo[1,5-a]pyrazin-1-yl)-3-methoxy-N-[4-(trifluoromethyl)pyridin-2-yl]benzamide], the 50% inhibitory concentration (IC50) in assay [1] is at least 10000 nM; in assay [2] it was 7.61 nM.
For `C[C@H]1CO[C@@H](c2nc(-c3ccc(C(=O)Nc4cc(C(F)(F)F)ccn4)cc3F)c3c(N)ncc(Cl)n23)CN1C1CCOCC1` [Example 48, 4-{8-amino-5-chloro-3-[(2R,5S)-5-methyl-4-(tetrahydro-2H-pyran-4-yl)morpholin-2-yl]imidazo[1,5-a]pyrazin-1-yl}-3-fluoro-N-[4-(trifluoromethyl)pyridin-2-yl]benzamide], the IC50 in assay [1] was found to be 397 nM; in assay [2], 0.303 nM.
